Consider four compounds from patent US11739093B2, “Substituted pyrazolopyrazines, imidazopyrazines and [1,2,4]triazolopyrazines as allosteric SHP2 inhibitors” (Revolution Medicines, Inc., priority 2017, dated 2023).

The target of this assay is SHP2 (Homo sapiens (Human), UniProt Q06124). Briefly: SHP2 Allosteric Inhibition Assay. It counts as biochemical. Particulars: 0.2 nM SHP2 with 0.5 μM Activating Peptide 1 or 2; surrogate substrate DiFMUP; prompt fluorescence, kinetic read. The text has this: Without wishing to be bound by theory, SHP is allosterically activated through binding of bis-tyrosyl-phosphorylated peptides to its Src Homology 2 (SH2) domains. The latter activation step leads to the release of the auto-inhibitory interface of SHP2, which in turn renders the SHP2 protein tyrosine phosphatase (PTP) active and available for substrate recognition and reaction catalysis. The catalytic activity of SHP2 was monitored using the surrogate substrate DiFMUP in a prompt fluorescence assay format.
Chain of SHP2 (Q06124 whole entry): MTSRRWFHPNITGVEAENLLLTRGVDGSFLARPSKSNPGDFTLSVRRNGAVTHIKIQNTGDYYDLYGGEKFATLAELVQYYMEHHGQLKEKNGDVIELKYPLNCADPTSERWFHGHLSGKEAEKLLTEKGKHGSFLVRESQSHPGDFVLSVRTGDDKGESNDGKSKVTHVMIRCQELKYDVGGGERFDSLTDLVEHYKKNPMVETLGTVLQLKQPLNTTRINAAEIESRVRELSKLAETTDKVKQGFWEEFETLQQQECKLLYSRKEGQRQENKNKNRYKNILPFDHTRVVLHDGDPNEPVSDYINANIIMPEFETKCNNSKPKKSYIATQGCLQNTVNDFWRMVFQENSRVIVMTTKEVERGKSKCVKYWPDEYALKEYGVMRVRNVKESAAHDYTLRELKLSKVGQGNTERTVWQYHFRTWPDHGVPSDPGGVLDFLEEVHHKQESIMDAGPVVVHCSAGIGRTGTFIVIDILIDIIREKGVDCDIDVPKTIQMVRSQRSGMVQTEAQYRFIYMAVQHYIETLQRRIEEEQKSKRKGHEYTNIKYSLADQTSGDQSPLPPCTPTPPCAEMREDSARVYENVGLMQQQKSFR
The phosphatase reactions were performed at room temperature in 96-well black polystyrene plate, flat bottom, non-binding surface (Corning, Cat #3650) using a final reaction volume of 100 μL and the following assay buffer conditions: 50 mM HEPES, pH 7.2, 100 mM NaCl, 0.5 mM EDTA, 0.05% P-20, 1 mM DTT.
The inhibition of SHP2 by compounds of the disclosure (concentrations varying from 0.00005-10 μM) was monitored using an assay in which 0.2 nM of SHP2 was incubated with 0.5 μM of Activating Peptide 1 (sequence: H2N-LN(pY)IDLDLV(dPEG8)LST(pY)ASINFQK-amide) or Activating Peptide 2 (sequence: H2N-LN(pY)AQLWHA(dPEG8)LTI(pY)ATIRRF-amide). After 30-60- minutes incubation at 25° C., the surrogate substrate DiFMUP (Invitrogen, Cat #D6567) was added to the reaction and activity was determined by a kinetic read using a microplate reader (Envision, Perkin-Elmer or Spectramax M5, Molecular Devices). The excitation and emission wavelengths were 340 nm and 450 nm, respectively. Initial rates were determined from a linear fit of the data, and the inhibitor dose response curves were analyzed using normalized IC50 regression curve fitting with control based normalization.

Each structure is given as a SMILES string.

`Cc1nc(N2CCC(C)(N)CC2)c2cncn2c1-c1cccc(Cl)c1Cl` [Compound 2, 1-(5-(2,3-dichlorophenyl)-6-methylimidazo[1,5-a]pyrazin-8-yl)-4-methylpiperidin-4-amine] came in with an IC50 of 190 nM. The same measure for `Cc1nc(N2CCC3(CC2)CO[C@@H](C)[C@H]3N)c2nccn2c1Sc1ccnc(N)c1Cl` [Compound 6, (3S,4S)-8-{5-[(2-amino-3-chloropyridin-4-yl)sulfanyl]-6-methylimidazo[1,2-a]pyrazin-8-yl}-3-methyl-2-oxa-8-azaspiro[4.5]decan-4-amine]: 1100 nM; for `CC1(N)CCN(c2ncc(Sc3ccnc(N)c3Cl)c3nsnc23)CC1` [Compound 15, 4-((4-(4-amino-4-methylpiperidin-1-yl)-[1,2,5]thiadiazolo[3,4-c]pyridin-7-yl)thio)-3-chloropyridin-2-amine]: 340 nM.

In turn, `C[C@@H]1OCC2(CCN(c3ncc(Sc4ccnc(N)c4Cl)c4ncncc34)CC2)[C@@H]1N` [Compound 16, (3S,4S)-8-{8-[(2-amino-3-chloropyridin-4-yl)sulfanyl]pyrido[4,3-d]pyrimidin-5-yl}-3-methyl-2-oxa-8-azaspiro[4.5]decan-4-amine] gave an IC50 of 83 nM. This IC50 is about 4.1-fold lower than that of the compound before.

Broadly, the IC50 is the concentration needed to halve the response being measured.
